Test results taken from patent US20070128217A1 (priority 2003, published 2007).

Experiments:
[1] = tested on: antibodies in sera from SARS patients (sera 1a, 1b, 2, 6, 37, 62, London, SARS-yellow, SARS-green); type: binding, human; set-up: Binding of serum 6 to linear peptides of protein X1 of SARS-CoV Urbani / Binding of serum 37 to linear peptides of protein X1 of SARS-CoV Urbani / Binding of serum 6 to looped/cyclic peptide (PEPSCAN-ELISA) / Binding of serum 37 to looped/cyclic peptide (PEPSCAN-ELISA) / Binding of serum 37 to looped/cyclic peptides of protein X1 of SARS-CoV Urbani / Binding of serum 6 to linear peptides of protein X2 / Binding of serum 37 to linear peptides of protein X2 / Binding of serum 37 to looped/cyclic peptides of protein X2 of SARS-CoV Urbani / Binding of serum 6 to linear peptides of protein M of SARS-CoV Urbani / Binding of serum 37 to linear peptides of protein M of SARS-CoV Urbani / Binding of serum 6 to looped/cyclic peptides of protein M of SARS-CoV Urbani / Binding of serum 37 to looped/cyclic peptides of protein M of SARS-CoV Urbani / Binding of serum 6 to linear peptides of protein X3 of SARS-CoV Urbani / Binding of serum 37 to linear peptides of protein X3 of SARS-CoV Urbani / Binding of serum 37 to looped/cyclic peptides of protein X3 of SARS-CoV Urbani / Binding of serum 6 to linear peptides of protein X4 of SARS-CoV Urbani / Binding of serum 37 to linear peptides of protein X4 of SARS-CoV Urbani / Binding of serum 37 to looped/cyclic peptides of protein X4 of SARS-CoV Urbani / Binding of serum 6 to linear peptides of protein X5 of SARS-CoV Urbani / Binding of serum 37 to linear peptides of protein X5 of SARS-CoV Urbani / Binding of serum 37 to looped/cyclic peptides of protein X5 of SARS-CoV Urbani / Binding of serum 6 to linear peptides of protein N of SARS-CoV Urbani / Binding of serum 37 to linear peptides of protein N of SARS-CoV Urbani / Binding of serum 6 to linear peptide (PEPSCAN-ELISA) / Binding of serum 1a to looped/cyclic peptides of protein N of SARS-CoV Urbani / Binding of serum 1b to looped/cyclic peptides of protein N of SARS-CoV Urbani / Binding of serum 2 to looped/cyclic peptides of protein N of SARS-CoV Urbani / Binding of serum 6 to looped/cyclic peptides of protein N of SARS-CoV Urbani / Binding of serum 37 to looped/cyclic peptides of protein N of SARS-CoV Urbani / Binding of serum 62 to looped/cyclic peptides of protein N of SARS-CoV Urbani / Binding of serum London to looped/cyclic peptides of protein N of SARS-CoV Urbani / Binding of serum SARS-green to looped/cyclic peptides of protein N of SARS-CoV Urbani: unit not given here
[2] = tested on: rabbit serum obtained by immunizing a rabbit with the SARS-CoV strain Frankfurt 1; type: binding; set-up: Binding of a rabbit serum to linear peptides / Binding of a rabbit serum to looped peptides / Rabbit serum linear peptides / Rabbit serum looped peptides / Binding of a rabbit serum to linear peptides of protein N of SARS-CoV Urbani (Rabbit serum linear peptides) / Binding of a rabbit serum to looped/cyclic peptides of protein N of SARS-CoV Urbani (Rabbit serum looped peptides): unit not given here
[3] = tested on: control sera (pooled serum of ten healthy LUMC hospital workers; commercial negative donor pooled serum from the Dutch bloodbank); type: binding, human; set-up: Binding of Control serum LUMC to linear peptides / Binding of Control serum Blood-bank to linear peptides / Binding of Control serum LUMC to looped peptides / Binding of Control Serum Blood-Bank to Looped peptides / Binding of Control serum LUMC to linear peptides of the protein M of SARS-CoV Urbani / Binding of Control serum Blood-bank to linear peptides of the protein M of SARS-CoV Urbani / Binding of Control serum LUMC to looped peptides of the protein M of SARS-CoV Urbani / Binding of Control Serum Blood-Bank to Looped peptides of the protein M of SARS-CoV Urbani: unit not given here

CINACRIIMRCWLCW
0.6: Binding of serum 2 to looped/cyclic peptide (PEPSCAN-ELISA) [1] | Binding of serum 37 to linear peptides of protein X1 of SARS-CoV Urbani [1] | Binding of serum 37 to looped/cyclic peptide (PEPSCAN-ELISA) [1]
0.8: Binding of serum 1a to linear peptides of protein X1 of SARS-CoV Urbani [1] | Binding of serum London to looped/cyclic peptide (PEPSCAN-ELISA) [1] | Binding of Control Serum Blood-Bank to Looped peptides [3] | Binding of Control serum LUMC to linear peptides [3]
0.3: Binding of serum SARS-green to looped/cyclic peptide (PEPSCAN-ELISA) [1]
0.5: Binding of serum 1b to linear peptides of protein X1 of SARS-CoV Urbani [1] | Binding of serum 2 to linear peptides of protein X1 of SARS-CoV Urbani [1] | Binding of serum SARS-yellow to looped/cyclic peptide (PEPSCAN-ELISA) [1]
0.4: Binding of serum 1b to looped/cyclic peptide (PEPSCAN-ELISA) [1] | Binding of serum London to linear peptides of protein X1 of SARS-CoV Urbani [1] | Binding of serum SARS-yellow to linear peptides of protein X1 of SARS-CoV Urbani [1]
0.2: Binding of serum SARS-green to linear peptides of protein X1 of SARS-CoV Urbani [1]
recognized: Recognition of the peptide by the rabbit serum [2]
0.7: Binding of serum 1a to looped/cyclic peptide (PEPSCAN-ELISA) [1] | Binding of serum 6 to linear peptides of protein X1 of SARS-CoV Urbani [1] | Binding of serum 6 to looped/cyclic peptide (PEPSCAN-ELISA) [1] | Binding of serum 62 to linear peptides of protein X1 of SARS-CoV Urbani [1] | Binding of serum 62 to looped/cyclic peptide (PEPSCAN-ELISA) [1] | Binding of Control serum Blood-bank to linear peptides [3] | Binding of Control serum LUMC to looped peptides [3]

CIVGLMWLSYFVASF
0.3: Binding of serum 2 to linear peptides of protein M of SARS-CoV Urbani [1] | Binding of serum 6 to linear peptides of protein M of SARS-CoV Urbani [1] | Binding of serum London to linear peptides of protein M of SARS-CoV Urbani [1] | Binding of serum SARS-green to linear peptides of protein M of SARS-CoV Urbani [1] | Rabbit serum looped peptides [2]
0.4: Binding of serum 2 to looped/cyclic peptides of protein M of SARS-CoV Urbani [1] | Binding of serum 6 to looped/cyclic peptides of protein M of SARS-CoV Urbani [1] | Binding of serum 37 to linear peptides of protein M of SARS-CoV Urbani [1] | Binding of serum 62 to linear peptides of protein M of SARS-CoV Urbani [1] | Binding of serum 62 to looped/cyclic peptides of protein M of SARS-CoV Urbani [1] | Binding of Control serum Blood-bank to linear peptides of the protein M of SARS-CoV Urbani [3]
0.2: Binding of serum 1b to looped/cyclic peptides of protein M of SARS-CoV Urbani [1] | Binding of serum London to looped/cyclic peptides of protein M of SARS-CoV Urbani [1]
0.0: Binding of serum SARS-green to looped/cyclic peptides of protein M of SARS-CoV Urbani [1]
0.1: Binding of serum SARS-yellow to linear peptides of protein M of SARS-CoV Urbani [1] | Rabbit serum linear peptides [2]
0.7: Binding of serum 1a to linear peptides of protein M of SARS-CoV Urbani [1] | Binding of Control serum LUMC to looped peptides of the protein M of SARS-CoV Urbani [3]
0.6: Binding of serum 37 to looped/cyclic peptides of protein M of SARS-CoV Urbani [1] | Binding of Control Serum Blood-Bank to Looped peptides of the protein M of SARS-CoV Urbani [3]
0.5: Binding of serum 1a to looped/cyclic peptides of protein M of SARS-CoV Urbani [1] | Binding of serum 1b to linear peptides of protein M of SARS-CoV Urbani [1] | Binding of serum SARS-yellow to looped/cyclic peptides of protein M of SARS-CoV Urbani [1] | Binding of Control serum LUMC to linear peptides of the protein M of SARS-CoV Urbani [3]

CKSKNPLLYDANYFV
0.4: Binding of serum 6 to looped/cyclic peptide (PEPSCAN-ELISA) [1]
0.6: Binding of serum 1b to looped/cyclic peptide (PEPSCAN-ELISA) [1] | Binding of serum 6 to linear peptides of protein X1 of SARS-CoV Urbani [1] | Binding of a rabbit serum to looped peptides [2] | Binding of Control Serum Blood-Bank to Looped peptides [3]
0.5: Binding of serum 1b to linear peptides of protein X1 of SARS-CoV Urbani [1] | Binding of serum 2 to linear peptides of protein X1 of SARS-CoV Urbani [1] | Binding of serum 2 to looped/cyclic peptide (PEPSCAN-ELISA) [1] | Binding of serum 62 to linear peptides of protein X1 of SARS-CoV Urbani [1] | Binding of serum SARS-yellow to looped/cyclic peptide (PEPSCAN-ELISA) [1] | Binding of Control serum Blood-bank to linear peptides [3]
0.8: Binding of serum 1a to linear peptides of protein X1 of SARS-CoV Urbani [1] | Binding of serum 1a to looped/cyclic peptide (PEPSCAN-ELISA) [1] | Binding of serum 37 to looped/cyclic peptide (PEPSCAN-ELISA) [1] | Binding of serum 62 to looped/cyclic peptide (PEPSCAN-ELISA) [1] | Binding of Control serum LUMC to linear peptides [3] | Binding of Control serum LUMC to looped peptides [3]
0.1: Binding of a rabbit serum to linear peptides [2]
0.3: Binding of serum London to linear peptides of protein X1 of SARS-CoV Urbani [1] | Binding of serum SARS-green to looped/cyclic peptide (PEPSCAN-ELISA) [1]
0.2: Binding of serum London to looped/cyclic peptide (PEPSCAN-ELISA) [1] | Binding of serum SARS-green to linear peptides of protein X1 of SARS-CoV Urbani [1] | Binding of serum SARS-yellow to linear peptides of protein X1 of SARS-CoV Urbani [1]
0.7: Binding of serum 37 to linear peptides of protein X1 of SARS-CoV Urbani [1]

CKYTQSTALQELLIQ
0.4: Binding of serum 6 to linear peptides of protein X2 [1] | Binding of serum 6 to looped/cyclic peptides of protein X2 of SARS-CoV Urbani [1] | Binding of serum 62 to looped/cyclic peptides of protein X2 of SARS-CoV Urbani [1] | Binding of serum SARS-green to looped/cyclic peptides of protein X2 of SARS-CoV Urbani [1] | Binding of Control Serum Blood-Bank to Looped peptides [3]
0.2: Binding of a rabbit serum to linear peptides [2] | Binding of a rabbit serum to looped peptides [2]
0.6: Binding of serum 1a to looped/cyclic peptides of protein X2 of SARS-CoV Urbani [1] | Binding of serum 1b to looped/cyclic peptides of protein X2 of SARS-CoV Urbani [1] | Binding of serum SARS-yellow to linear peptides of protein X2 [1] | Binding of Control serum Blood-bank to linear peptides [3] | Binding of Control serum LUMC to looped peptides [3]
0.3: Binding of serum 37 to looped/cyclic peptides of protein X2 of SARS-CoV Urbani [1] | Binding of serum London to looped/cyclic peptides of protein X2 of SARS-CoV Urbani [1] | Binding of serum SARS-yellow to looped/cyclic peptides of protein X2 of SARS-CoV Urbani [1]
0.7: Binding of serum 1a to linear peptides of protein X2 [1] | Binding of serum 37 to linear peptides of protein X2 [1] | Binding of serum 62 to linear peptides of protein X2 [1] | Binding of serum SARS-green to linear peptides of protein X2 [1]
0.5: Binding of serum 1b to linear peptides of protein X2 [1] | Binding of serum 2 to linear peptides of protein X2 [1] | Binding of serum 2 to looped/cyclic peptides of protein X2 of SARS-CoV Urbani [1] | Binding of serum London to linear peptides of protein X2 [1] | Binding of Control serum LUMC to linear peptides [3]
